Literature values as cited in patent US6683094B2, “Antihistaminic piperidine derivatives and intermediates for the preparation thereof” (Aventis Pharmaceuticals Inc., priority 1998, dated 2004).

Conditions: to two primary metabolites (fexofenadine and an inactive dealkylated metabolite)

CC(C)(C)c1ccc(C(O)CCCN2CCC(C(O)(c3ccccc3)c3ccccc3)CC2)cc1 (stereo not drawn) [Terfenadine, α-[4-(1,1-dimethylethyl)phenyl]-4-(hydroxydiphenylmethyl)-1-piperidinebutanol]
first pass metabolism: 99%
